Data taken from US7781565B2 (priority 2006, dated 2010).
“Also recorded” adds a separate entry of the source.

Tested on: NCI-60 cell lines
Assay type: cell-based, human

| Substance | Cell Line (NCI-60 cell line the peptide and its motif are associated with) | Cell Line with which the peptide (and its tripeptide motif) is associated | Cell Line the peptide is associated with (peptide recovered from phage library selection on this NCI-60 cell line) | Cell Line (NCI-60 cell line the peptide is associated with) |
| --- | --- | --- | --- | --- |
| RGRVLLP | M14 Melanoma |  |  |  |
| RGSAQNF |  | RPMI-8226-Leukemia |  |  |
| RGSFGLG |  |  | T-47D Breast |  |
| RGSHLVP |  | CCRF-CEM Leukemia |  |  |
| RGSLLWA | UACC 257 Melanoma |  |  |  |
| RGSPAAA |  |  | MDA-MB-435-Breast |  |
| RGSPLTK | UACC 257 Melanoma |  |  |  |
| RGSRLPA |  | EKVX-Lung |  |  |
| RGSRTGP |  |  |  | U251 CNS |
| RGSRWSS |  |  | BT-549 Breast |  |
| RGSVASA |  |  |  | HT-29 Colon |
| RGSVGPS |  |  |  | SW620-Colon |
| RGSVRVL |  | HL-60-Leukemia |  |  |
| RGSWAGV |  |  |  | HT-29 Colon |
| RGSYVER |  |  | BT-549 Breast |  |
| RGVASRS |  | H460-Lung |  |  |
| RGVFYGK |  | H322-Lung |  |  |
| RGVGAKA |  |  | NCI/ADR-RES Breast |  |
| RGVGKTK |  |  | MDA-MB-231 Breast |  |
| RGVGWAK |  | H322-Lung |  |  |
| RGVKLGD |  |  |  | SW620-Colon |
| RGVNYRS |  |  | RXF393 Renal |  |
| RGVSGRL | SK-MEL-28 Melanoma |  |  |  |
| RGVSLKG |  | H226-Lung |  |  |
| RGVVSAK |  | Hop-92-Lung |  |  |
| RGVVSGV |  | Hop-92-Lung |  |  |
| RHFGLRE |  | H522-Lung |  |  |

| Substance | Cell Line (NCI-60 cell line the peptide and its motif are associated with) | Cell Line with which the peptide (and its tripeptide motif) is associated | Cell Line the peptide is associated with (peptide recovered from phage library selection on this NCI-60 cell line) | Cell Line (NCI-60 cell line the peptide is associated with) |
| --- | --- | --- | --- | --- |
| RHGPGVL | OVCAR-3 Ovarian |  |  |  |
| RHGVRSK |  |  |  | SF-295 CNS |
| RIDAGGG |  |  |  | SW620-Colon |
| RIFHGAV |  |  |  | SNB-19 CNS; also recorded: SF-539 CNS |
| RIGAGHR | PC3 Prostate |  |  |  |
| RIGAVWY |  |  |  | HT-29 Colon |
| RIGRVWA |  | Molt-4-Leukemia |  |  |
| RKEALRV |  |  | CAIK-1 Renal |  |
| RKGSGTA |  |  | BT-549 Breast |  |
| RKPGGGR |  |  |  | HT-29 Colon |
| RLAVSGY |  | H522-Lung |  |  |
| RLETLLS |  |  | UO31 Renal |  |
| RLGSSGL |  |  | RXF393 Renal |  |
| RLHYLRS | M14 Melanoma |  |  |  |
| RLLSAFG |  |  |  | HCT-15 Colon |
| RLLSEGY |  |  |  | SNB-75 CNS |
| RLRAASY |  | RPMI-8226-Leukemia |  |  |
| RLRLSSW |  |  | TK-10 Renal |  |
| RLRSYVA | 786-0 Renal |  |  |  |
| RLRVSVR |  |  | CAIK-1 Renal |  |
| RLSALTD |  |  |  | HT-29 Colon |
| RLSGAGD | OVCAR-5 Ovarian |  |  |  |
| RLSMASR |  |  | ACHN Renal |  |
| RLSSAPS | M14 Melanoma |  |  |  |
| RLSTFAG |  |  |  | SNB-19 CNS; also recorded: SF-539 CNS |
| RLSWTVL | PC3 Prostate |  |  |  |
